Laboratory results from ChEMBL document CHEMBL3507680, “University of Dundee, Gates Library screen for HepG2 cell viability”.

Test: Human HepG2 cell viability assay in 384 well format
Assay type: toxicity, cell-based
Design: dose 125 nL, time 70.5 hour; concentration not given beside the values
Settings: HepG2 cells, read-out: Inhibition

Cn1cc(-c2c(C#N)c(N)nc3c2CCc2[nH]ccc2-3)cn1
cytotoxicity at 70.5 h: 17.1%

CCN(C)CC(C)Cn1cnc(-c2ccccc2)c1-c1cncn1CC (centres undefined)
cytotoxicity at 70.5 h: -10.8%

O=C(Nc1cnc2n1CCCC2)c1cccc(NC(=O)C2CCCC2)c1
cytotoxicity at 70.5 h: -8.35%

CN(C)C(=O)c1cccnc1-c1ccc2c(c1)OCO2
cytotoxicity at 70.5 h: -11.3%

O=C1O[C@@H]2CN(c3ccc(Cl)cn3)C[C@@H]2N1CCc1ccc(F)cc1
cytotoxicity at 70.5 h: -8.87%

Cc1ccccc1CN(Cc1ccc(S(C)(=O)=O)cc1)CC(C)C
cytotoxicity at 70.5 h: 6.09%

CCNc1ccnc(NCC2CNCCO2)n1 (centres undefined)
cytotoxicity at 70.5 h: -3.23%

COCCn1ccnc1-c1[nH]cnc1C
cytotoxicity at 70.5 h: 6.67%

CC(C)(C)c1ncc(S(C)(=O)=O)c(C2CCCNC2)n1 (centres undefined)
cytotoxicity at 70.5 h: -6.75%

CC(c1cccnc1)N(C)Cc1cc(O)c2cc(F)ccc2n1 (centres undefined)
cytotoxicity at 70.5 h: -6.6%

COc1cccc2ccc(CN3CCN(c4ccncc4)CC3)nc12
cytotoxicity at 70.5 h: -9.89%

CCCNc1ncc(-c2cc(C3CC3)nc(N)c2C#N)cn1
cytotoxicity at 70.5 h: -12.1%

CC1=C(C(=O)N2CCCC(Cn3cc(CO)nn3)C2)OCCO1 (centres undefined)
cytotoxicity at 70.5 h: -2.23%

NCCc1n[nH]c(=O)n1-c1cccc(Cl)c1Cl
cytotoxicity at 70.5 h: -3.82%

O=C(CCSc1ccc2c(c1)OCCO2)NCC1CCS(=O)(=O)C1 (centres undefined)
cytotoxicity at 70.5 h: -3.43%

Cc1cc(C(=O)N2CCCC3(CN(C)C(=O)O3)C2)c2ccc(F)cc2n1 (centres undefined)
cytotoxicity at 70.5 h: 16.1%

Cc1n[nH]c(CN2CCN(CC3CC3)[C@@H]3CS(=O)(=O)C[C@@H]32)n1
cytotoxicity at 70.5 h: 44.8%

COC[C@@H]1CCCN1C(=O)c1cc(-c2ccc(OC)cc2)n[nH]1
cytotoxicity at 70.5 h: -7.57%

COc1ccc(-c2noc(CN3CCN(c4cnccn4)CC3)n2)cc1
cytotoxicity at 70.5 h: -16.7%

CCn1ccnc1CN1CCC(=O)N(CC2CC2)C(C(C)C)C1 (centres undefined)
cytotoxicity at 70.5 h: 31.2%

NC(=O)CN1CCCC(C(=O)N2CCC(Oc3ncccn3)CC2)C1 (centres undefined)
cytotoxicity at 70.5 h: -2.67%

Cc1ccc(C(C(=O)NCCc2nc(C)cc(C)n2)N(C)C)cc1 (centres undefined)
cytotoxicity at 70.5 h: -4.39%

CCC(Cn1ccc2[nH]c(=O)c(C#N)cc2c1=O)OC (centres undefined)
cytotoxicity at 70.5 h: -6.98%

CCc1nnc(CN2CCc3[nH]c(-c4ccc(OC)cc4)nc3C2)o1
cytotoxicity at 70.5 h: -9.04%

COCC1CCN(S(=O)(=O)c2ccc(C(=O)NCC(F)F)cc2)C1 (centres undefined)
cytotoxicity at 70.5 h: 9.26%

Cc1cc(N[C@H]2CCCC[C@@H]2O)n2nccc2n1
cytotoxicity at 70.5 h: 5.62%

O=C(c1cn(CCN2CCCCC2)nn1)N1CCCO1
cytotoxicity at 70.5 h: -6.13%

CC(C)C1CN(c2cccc(C#N)n2)CCCN1Cc1ccc(F)cc1 (centres undefined)
cytotoxicity at 70.5 h: -15.7%

Cc1cccc(C)c1NC(=O)c1cccc(CN2CCCC2C)c1 (centres undefined)
cytotoxicity at 70.5 h: 3.17%

COCCN(C)c1nc(-c2ccncc2)nc2c1CCN(C(C)=O)C2
cytotoxicity at 70.5 h: -7.41%

c1cnc(N2CCN(CCn3ccnc3-c3ccncc3)CC2)nc1
cytotoxicity at 70.5 h: 12.5%

CO[C@H]1CNC[C@@H]1NC(=O)CCc1nc(-c2ccccc2)no1
cytotoxicity at 70.5 h: -0.167%

CC/C=C(\C)CN1CCC(CNC(=O)c2ccnc(N)c2)C1 (centres undefined)
cytotoxicity at 70.5 h: 15%

CC(C)(C)c1cc(CN2C[C@H]3CC[C@@H]2CN(Cc2cscn2)C3)n[nH]1
cytotoxicity at 70.5 h: 13.7%

CC(C)NC(=O)[C@@H]1C[C@H](N)CN1C(=O)C1(c2ccc(Cl)cc2)CCC1
cytotoxicity at 70.5 h: -9.78%

Cc1nc(C(=O)N2CCN(c3ncccn3)[C@@H]3CS(=O)(=O)C[C@@H]32)cs1
cytotoxicity at 70.5 h: -7.79%

Cc1nnc(-c2cccc(N3CCC(NC(C)CC(C)C)CC3)c2)s1 (centres undefined)
cytotoxicity at 70.5 h: -4.36%

COc1ccc(C(C(=O)O)N(C)CCN2CCCC2)c(C)c1 (centres undefined)
cytotoxicity at 70.5 h: 24%

CCCc1nc(C(=O)NCc2cccnc2-n2cncn2)cs1
cytotoxicity at 70.5 h: 7.67%

O=C(C1CCOc2ccccc2C1)N1Cc2cnn(CCO)c2C1 (centres undefined)
cytotoxicity at 70.5 h: 9.23%

Cc1cc(CC(C)NC(=O)Cc2cc(F)ccc2C)[nH]n1 (centres undefined)
cytotoxicity at 70.5 h: 3.68%

O=C(CCO)N1C[C@H]2CC[C@@H]1CN(C1Cc3ccccc3C1)C2
cytotoxicity at 70.5 h: -9.88%

O=C(Cc1ccc(O)c(F)c1)N1CCN(CC2CC2)[C@@H]2CS(=O)(=O)C[C@@H]21
cytotoxicity at 70.5 h: -6.03%

Cc1ccsc1C(CNC(=O)c1cc(=O)[nH]c(=O)[nH]1)N(C)C (centres undefined)
cytotoxicity at 70.5 h: 17.7%

Cc1ccc(Sc2ccc(CN3CCC4(CC3)NCCNC4=O)o2)cc1
cytotoxicity at 70.5 h: 1.08%

CC(C)(C)CN1CCN(CC2CC2)C(CCO)C1 (centres undefined)
cytotoxicity at 70.5 h: -0.19%

Cc1cc(CN(C)C(=O)C2CC(=O)N(Cc3cccnc3)C2)on1 (centres undefined)
cytotoxicity at 70.5 h: -9.4%

O=C(O)[C@@H]1CN(Cc2cc3c(cc2Cl)OCO3)C[C@H]1C1CC1
cytotoxicity at 70.5 h: -1.73%

c1cc2c(cc1C[C@@H]1CC[C@H](CN3CCCOCC3)O1)OCO2
cytotoxicity at 70.5 h: -5.03%

CN(C)C[C@@H]1CN(Cc2ccccc2C#N)C[C@@H]1CO
cytotoxicity at 70.5 h: 2.25%

COc1ccccc1OC1CN(C(=O)c2ccccc2C(C)=O)C1
cytotoxicity at 70.5 h: -19.5%

NC(=O)c1cncc(-n2ccc(-c3cnccn3)n2)c1
cytotoxicity at 70.5 h: -8.7%

CN1CC2(CCCN(Cc3ccccc3OCC(=O)O)C2)OC1=O (centres undefined)
cytotoxicity at 70.5 h: -2.41%

CCN1CCN(Cc2nc(CCc3ccccc3)n[nH]2)CC1
cytotoxicity at 70.5 h: 29.9%

O=C([C@@H](O)Cc1ccccc1)N1CCCn2cncc2C1
cytotoxicity at 70.5 h: -7.92%

CCN1CCCC(C)(C(=O)NCCCc2nc(C)cs2)C1 (centres undefined)
cytotoxicity at 70.5 h: -10.4%

CCc1cc(N[C@H]2CCC[C@H]2CO)n2nc(C)c(C)c2n1
cytotoxicity at 70.5 h: -2.92%

CC(NC(=O)c1coc(COc2cccc(F)c2)n1)c1nnc(N)s1 (centres undefined)
cytotoxicity at 70.5 h: -10.7%

Cc1noc(-c2ccnc(Oc3ccccc3CN3CCCCC3)c2)n1
cytotoxicity at 70.5 h: -1.96%

COc1cccc(-c2noc(-c3ccc(NCCCN)nc3)n2)c1OC
cytotoxicity at 70.5 h: 2.21%

Cc1[nH]c2c(F)cccc2c1CC(=O)NC1CCCCNC1=O (centres undefined)
cytotoxicity at 70.5 h: 24.9%

O=C(CSc1ccncc1)N1CCC2(CC1)c1ccccc1CC2O (centres undefined)
cytotoxicity at 70.5 h: -5.15%

Cn1c(CN2CCCCC2)nnc1C1CCCN(C(=O)CCC(N)=O)C1 (centres undefined)
cytotoxicity at 70.5 h: -9%

O=C(O)c1cc(-c2ccncc2)cc(S(=O)(=O)N2CCCCCC2)c1
cytotoxicity at 70.5 h: -18.9%

CCc1cnc(NCCCN2CCC(O)CC2)nc1
cytotoxicity at 70.5 h: -1.08%

Cc1nc(-c2ncc(C(=O)NCCNc3ncccc3C)c(O)n2)cs1
cytotoxicity at 70.5 h: -2.82%

CC(CN1CCC(c2ccccc2)CC1)n1cnc2ccccc21 (centres undefined)
cytotoxicity at 70.5 h: -18.3%

Cc1nn(C)c(C)c1CN(C(=O)c1cnc(O)cn1)C(C)C
cytotoxicity at 70.5 h: -2.89%

CNC(=O)[C@@H]1C[C@H](N)CN1S(=O)(=O)c1cc(Cl)cc(Cl)c1O
cytotoxicity at 70.5 h: -6.21%

c1csc(CN2CCCN(c3ncnc4[nH]ccc34)CC2)c1
cytotoxicity at 70.5 h: -13.6%

O=C(O)[C@@H]1CN(Cc2nc3ncccn3n2)C[C@H]1c1cccc(F)c1
cytotoxicity at 70.5 h: 26.1%

COc1ccccc1OCc1cc(C(=O)NC[C@@H]2CCCN2)n[nH]1
cytotoxicity at 70.5 h: -1.83%

CCc1nnc(N2C[C@@H](NC(C)=O)[C@H](c3ccc(C)o3)C2)s1
cytotoxicity at 70.5 h: 2.74%

OC1(CNCCSCc2ccccc2)CCCNC1 (centres undefined)
cytotoxicity at 70.5 h: 18.4%

CC(C)=CCN1C[C@@H]2CN(C(=O)c3cnccc3C)C[C@]2(C(=O)O)C1
cytotoxicity at 70.5 h: -7.13%

CN(C)CCCC(=O)NC1CC(C)(C)Cc2nc(C(C)(C)C)ncc21 (centres undefined)
cytotoxicity at 70.5 h: -17.7%

COc1ccc2c(c1OC)Cc1c-2nc(N)c(C#N)c1C1CCOC1 (centres undefined)
cytotoxicity at 70.5 h: -19.2%

CCOCC(=O)N1CCc2c(ncnc2N2CCOCC2)C1
cytotoxicity at 70.5 h: -3.63%

CC(C)c1nccc(-c2nccn2CCS(C)(=O)=O)n1
cytotoxicity at 70.5 h: -16.1%
